# Assay results as given in US7078499B2, “Nucleotide analogues comprising a reporter moiety and a polymerase enzyme blocking moiety” (GE Healthcare UK Limited, priority 2000, dated 2006).
# Tests used:
# Format in all cases: biochemical
# Tth DNA polymerase = molecular target: T1, Tth DNA polymerase (Thermus thermophilus, UniProt P52028); test: Thermostable DNA polymerase primer extension, Tth; design: key to result of incorporation (termination / further chain extension): T: Incorporation results in termination; E: Incorporation permits further chain extension; T/E: Predominant product is primer extended by one base, but evidence of some further extension also observed; details: DNA template, 45° C. for 20–40 minutes; for primer extended by at least one base within assay time (grade): TTP replaced entirely by test compound
# T1 construct: purchased APBiotech
# Method: (§1) DNA polymerase assays were performed using Sequence 1 as primer and Sequence 2 as template. • Sequence 1 5′[Cy3]TAACTCATTAACAGGATC 3′ • Sequence 2 5′AT TCGCGGTATTCTGGTATGAAGCTTTTAGATCCTGTTAATGAGTTA GTA3′
# (§2) The template (Sequence 2) was designed such that the base (underlined) immediately adjacent to the 3′ end of the hybridised primer is complementary to the nucleotide test compound. Nucleotide test compounds were compounds (6) (4′-C-(glycylaminomethyl)thymidine triphosphate), (8) (4′-C-(N-trifluoroacetyaminomethyl)thymidine triphosphate) and (9) (4′-C-(aminomethyl)thymidine triphosphate) as described above.
# (§3) Primer extension reactions were performed using the above primers in the presence of 40 to 80 μM of nucleotide triphosphates. Positive control reactions contained all four native nucleotide triphosphates. For the other reactions the TTP was replaced with either a 2:1 ratio of […] for the terminator control, or entirely by the test compound The enzymes were used at a final concentration of 0.175 units/μl and a magnesium ion concentration of 2.5 mM in buffers supplied by the manufacturer. The primer and template concentrations were 0.5 pmol/μl and 2 pmol/μl respectively.
# (§4) Extension reactions with thermophilic enzymes were performed by initially denaturing the fully assembled reactions at 70° C. for 5 min. followed by 45° C. for 20–40 minutes. The following enzymes were used: Taq DNA polymerase (Taq); Thermosequenase (TS); Thermosequenase II (TSII); Thermosequenase E (TSE), Tfl DNA polymerase (Tfl); Tth DNA polymerase (Tth), deltaTts DNA polymerase (deltaTts), deltaTts D DNA polymerase (dettaTTSD) (all from APBiotech); Pfu DNA polymerase (Pfu) (Stratagene Ltd); Vent™ DNA polymerase (Vent) (New England Biolabs).
# (§5) The reactions were stopped by adding a 0.5 volume aliquot of 80% formamide containing 0.1% (w/v) bromophenol blue and 0.1% (w/v) cresol blue. The reaction products were separated by denaturing gel electrophoresis at a constant power of 45 W on 16% polyacrylamide gels containing 50% urea.
# (§6) Gels were scanned for Cy3 fluorescence on a Molecular Dynamics Fluorimager and the data analysed using Molecular Dynamics ImageQuant 5 software.
# (§7) The incorporation of a test nucleotide triphosphate results in the appearance on a polyacrylamide gel of a single band corresponding to a single base extension product. If, however, the enzyme adds additional bases then further bands would be observed that corresponded to either the full-length product or positions of other complementary bases in the template.
# Thermosequenase = test: Thermostable polymerase under reverse transcription conditions, TS I; design: key to result of incorporation (termination / further chain extension): T: Incorporation results in termination; E: Incorporation permits further chain extension; T/E: Predominant product is primer extended by one base, but evidence of some further extension also observed; details: RNA template, 2.5 mM Manganese ions; for primer extended by at least one base within assay time (grade): Tth reaction buffer
# Method: as §1, §2, §3, §4
# (§8) Reverse transcriptase reactions were performed essentially as described above for thermophilic and mesophilic enzymes. The template for these reactions was the RNA equivalent of sequence 2. All the thermophilic enzymes were assayed in Tth reaction buffer (Cambio Ltd, Cambridge UK) containing 2.5 mM Manganese ions. The following enzymes were used: Thermosequenase (TS1); Thermosequenase II (TSII); delta Tts DNA polymerase (deltaTts); delta Tts D DNA polymerase (deltaTtsD) (all from APBiotech); Retrotherm reverse transcriptase (Retroth) (Cambio Ltd); Tth DNA polymerase (Tth) (Cambio Ltd.).
# as §5, §6, §7
# a range of polymerases = test: DNA polymerase assays (summary); details: for further extension after incorporation: reverse transcriptase conditions; for result of incorporation / substrate for polymerases: summary of polymerase assays
# Method: as §1, §2, §3, §4
# (§9) Extension reactions preformed with mesophilic polymerases were carried out by mixing all the components of the reaction except the enzyme and heating to 70° C. for 5 min. After the reactions had cooled to room temperature 0.175 units of the enzyme were added and the reactions heated to 37° C. for 20–40 minutes. The following enzymes were used: T7 DNA polymerase (T7); Sequenase 2™ (Seq); Klenow fragment of DNA polymerase 1 (Klen); phi-29 DNA polymerase (Phi-29); T4 DNA polymerase (T4) (all from AP Biotech) and Bst DNA polymerase (Bst) (Cambio Ltd).
# as §8
# Mesophilic reverse transcriptases (AMV RT; MuLV RT; SAV RT and HIV RT all from APBiotech) were assayed in their respective buffers with a final enzyme concentration of 4 units/μl.
# as §5, §6, §7
# Thermosequenase II = test: Thermostable polymerase under reverse transcription conditions, TS II; design: key to result of incorporation (termination / further chain extension): T: Incorporation results in termination; E: Incorporation permits further chain extension; T/E: Predominant product is primer extended by one base, but evidence of some further extension also observed; details: RNA template, 2.5 mM Manganese ions; for primer extended by at least one base within assay time (grade): Tth reaction buffer
# Method: as §1, §2, §3, §4, §8, §5, §6, §7
# [1] = tested on: Retrotherm reverse transcriptase; test: Thermostable polymerase under reverse transcription conditions, Retroth.; design: key to result of incorporation (termination / further chain extension): T: Incorporation results in termination; E: Incorporation permits further chain extension; T/E: Predominant product is primer extended by one base, but evidence of some further extension also observed; key to primer extended by at least one base within assay time (grade): −: No extension within assay time; +/−: up to 25% of primer extended by at least one base within assay time; +: up to 50% of primer extended by at least one base within assay time; ++: up to 75% of primer extended by at least one base within assay time; +++: essentially all primer extended by at least one base within assay time; details: RNA template, 2.5 mM Manganese ions; for primer extended by at least one base within assay time (grade): Tth reaction buffer
# Method: as §1, §2, §3, §4, §8, §5, §6, §7
# phi-29 DNA polymerase = molecular target: T2, phi-29 DNA polymerase (Bacillus phage phi29, UniProt P03680); test: Mesophilic DNA polymerase primer extension, phi-29; design: key to result of incorporation (termination / further chain extension): T: Incorporation results in termination; E: Incorporation permits further chain extension; T/E: Predominant product is primer extended by one base, but evidence of some further extension also observed; details: DNA template, 37° C. for 20–40 minutes; for primer extended by at least one base within assay time (grade): TTP replaced entirely by test compound
# T2 construct: purchased AP Biotech
# Method: as §1, §2, §3, §9, §5, §6, §7
# [2] = molecular target: T3, Klenow fragment of DNA polymerase 1 (Escherichia coli, UniProt P00582); test: Mesophilic DNA polymerase primer extension, Klen; design: key: −: No extension within assay time; +/−: up to 25% of primer extended by at least one base within assay time; +: up to 50% of primer extended by at least one base within assay time; ++: up to 75% of primer extended by at least one base within assay time; +++: essentially all primer extended by at least one base within assay time; details: DNA template, TTP replaced entirely by test compound, 37° C. for 20–40 minutes
# T3 construct: Klenow fragment of DNA polymerase 1 (Klen); purchased AP Biotech
# Method: as §1, §2, §3, §9
# The reactions were stopped by adding a 0.5 volume aliquot of 80% formamide containing 0.1% (w/v) bromophenol blue and 0.1% (w/v) cresol blue. […]
# Gels were scanned for Cy3 fluorescence on a Molecular Dynamics Fluorimager and the data analysed using Molecular Dynamics ImageQuant 5 software. […]
# T3 sequence (P00582 324-928): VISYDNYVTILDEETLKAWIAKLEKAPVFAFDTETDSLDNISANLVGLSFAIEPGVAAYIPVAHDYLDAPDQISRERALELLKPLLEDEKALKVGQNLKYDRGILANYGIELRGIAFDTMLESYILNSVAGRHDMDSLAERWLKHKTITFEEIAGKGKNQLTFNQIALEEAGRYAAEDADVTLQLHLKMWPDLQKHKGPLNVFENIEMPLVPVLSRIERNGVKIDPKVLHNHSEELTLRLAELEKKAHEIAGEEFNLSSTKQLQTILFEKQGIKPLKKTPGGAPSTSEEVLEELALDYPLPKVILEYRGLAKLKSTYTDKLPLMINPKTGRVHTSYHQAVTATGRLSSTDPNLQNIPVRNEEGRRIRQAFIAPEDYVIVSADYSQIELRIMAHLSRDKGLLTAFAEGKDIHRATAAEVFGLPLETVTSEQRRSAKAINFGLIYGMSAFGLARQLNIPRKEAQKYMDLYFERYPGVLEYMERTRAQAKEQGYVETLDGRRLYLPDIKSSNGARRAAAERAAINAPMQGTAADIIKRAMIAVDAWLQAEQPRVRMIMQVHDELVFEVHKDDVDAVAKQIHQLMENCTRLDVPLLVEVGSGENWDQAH
# T2 sequence (P03680 whole entry): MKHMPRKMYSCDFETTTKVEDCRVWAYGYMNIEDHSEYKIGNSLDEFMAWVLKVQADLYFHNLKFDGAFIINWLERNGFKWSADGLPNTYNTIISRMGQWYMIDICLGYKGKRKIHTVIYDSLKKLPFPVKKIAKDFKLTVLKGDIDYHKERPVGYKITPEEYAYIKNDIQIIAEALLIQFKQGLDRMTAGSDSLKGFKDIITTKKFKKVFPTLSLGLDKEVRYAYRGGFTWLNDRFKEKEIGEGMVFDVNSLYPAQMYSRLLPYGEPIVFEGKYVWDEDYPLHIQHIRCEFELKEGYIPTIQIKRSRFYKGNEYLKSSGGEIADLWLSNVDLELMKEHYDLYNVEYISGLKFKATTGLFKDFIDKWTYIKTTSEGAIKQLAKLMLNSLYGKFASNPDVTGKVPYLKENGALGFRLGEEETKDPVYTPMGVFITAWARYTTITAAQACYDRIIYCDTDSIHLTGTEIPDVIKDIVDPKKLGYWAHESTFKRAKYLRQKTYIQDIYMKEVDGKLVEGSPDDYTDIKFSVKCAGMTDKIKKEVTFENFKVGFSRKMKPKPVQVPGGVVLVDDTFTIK
# T1 sequence (P52028 whole entry): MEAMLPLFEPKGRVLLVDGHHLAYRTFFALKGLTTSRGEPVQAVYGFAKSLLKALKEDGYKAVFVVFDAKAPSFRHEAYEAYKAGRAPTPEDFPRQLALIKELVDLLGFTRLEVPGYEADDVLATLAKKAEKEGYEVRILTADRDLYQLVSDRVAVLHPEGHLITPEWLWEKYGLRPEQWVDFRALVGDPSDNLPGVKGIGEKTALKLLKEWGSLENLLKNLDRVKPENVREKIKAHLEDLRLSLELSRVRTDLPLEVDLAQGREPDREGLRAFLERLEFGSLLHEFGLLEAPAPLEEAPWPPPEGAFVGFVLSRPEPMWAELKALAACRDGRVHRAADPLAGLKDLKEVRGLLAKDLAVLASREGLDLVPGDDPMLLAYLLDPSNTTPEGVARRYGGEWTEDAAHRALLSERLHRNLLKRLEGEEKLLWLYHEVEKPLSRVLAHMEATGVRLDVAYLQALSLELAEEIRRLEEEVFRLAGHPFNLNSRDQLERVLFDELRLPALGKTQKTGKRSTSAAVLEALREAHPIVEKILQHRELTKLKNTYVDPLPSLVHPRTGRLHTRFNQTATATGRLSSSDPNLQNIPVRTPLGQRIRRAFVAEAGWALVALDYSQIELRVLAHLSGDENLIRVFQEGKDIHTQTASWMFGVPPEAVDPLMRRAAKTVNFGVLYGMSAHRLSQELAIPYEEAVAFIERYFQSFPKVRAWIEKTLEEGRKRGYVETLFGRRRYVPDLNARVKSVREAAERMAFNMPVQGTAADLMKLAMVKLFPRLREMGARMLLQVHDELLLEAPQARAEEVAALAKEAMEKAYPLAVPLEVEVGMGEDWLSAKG
Molecule,result of incorporation (termination / further chain extension) (Tth DNA polymerase),primer extended by at least one base within assay time (grade) (Tth DNA polymerase),result of incorporation (termination / further chain extension) (Thermosequenase),primer extended by at least one base within assay time (grade) (Thermosequenase),further extension after incorporation (a range of polymerases),result of incorporation (a range of polymerases),substrate for polymerases (a range of polymerases),result of incorporation (termination / further chain extension) (Thermosequenase II),primer extended by at least one base within assay time (grade) (Thermosequenase II),result of incorporation (termination / further chain extension) [1],primer extended by at least one base within assay time (grade) [1],result of incorporation (termination / further chain extension) (phi-29 DNA polymerase),primer extended by at least one base within assay time (grade) (phi-29 DNA polymerase),primer extended by at least one base within assay time (grade) [2]
"Cc1cn([C@H]2C[C@H](O)[C@@](CNC(=O)C(F)(F)F)(COP(=O)(O)OP(=O)(O)OP(=O)(O)O)O2)c(=O)[nH]c1=O [compound (8), 4′-C-(N-trifluoroacetylaminomethyl)thymidine triphosphate]",T,++ (up to 75% of primer extended by at least one base within assay time),T/E,+ (up to 50% of primer extended by at least one base within assay time),some extension was observed,termination,effective substrates,E,+ (up to 50% of primer extended by at least one base within assay time),E,++ (up to 75% of primer extended by at least one base within assay time),T,+/− (up to 25% of primer extended by at least one base within assay time),−
4′-C-(Aminomethyl)thymidine triphosphate [compound (9)],T,++ (up to 75% of primer extended by at least one base within assay time),T/E,+ (up to 50% of primer extended by at least one base within assay time),some extension was observed,termination,effective substrates,E,++ (up to 75% of primer extended by at least one base within assay time),E,+++,T,+/− (up to 25% of primer extended by at least one base within assay time),−
4′-C-(Glycylaminomethyl)thymidine triphosphate [compound (6)],T,+ (up to 50% of primer extended by at least one base within assay time),T/E,+ (up to 50% of primer extended by at least one base within assay time),some extension was observed,termination,effective substrates,E,+ (up to 50% of primer extended by at least one base within assay time),E,++ (up to 75% of primer extended by at least one base within assay time),T,+/− (up to 25% of primer extended by at least one base within assay time),−
